9 compounds from ChEMBL document CHEMBL1201862, “PubChem BioAssay data set” (2004) can be followed below.

In one assay the target is Genome polyprotein (dengue virus type 2, UniProt P29990). The assay is described as follows: Dengue-2 NS5 methyltransferase inhibitors, primary screen, biochemical, confirmation dose response (AID 588689). It counts as functional.
The target of assay [1] is 1-phosphatidylinositol 4,5-bisphosphate phosphodiesterase gamma-1 (Homo sapiens, UniProt P19174). The assay is described as follows: Counterscreen for inhibitors of phospholipase C isozymes (PLC-B3): Fluorescence-based biochemical high throughput dose response assay to identify inhibitors of phospholipase C isozymes (PLC-gamma1).
Chain of 1-phosphatidylinositol 4,5-bisphosphate phosphodiesterase gamma-1 (P19174 whole entry): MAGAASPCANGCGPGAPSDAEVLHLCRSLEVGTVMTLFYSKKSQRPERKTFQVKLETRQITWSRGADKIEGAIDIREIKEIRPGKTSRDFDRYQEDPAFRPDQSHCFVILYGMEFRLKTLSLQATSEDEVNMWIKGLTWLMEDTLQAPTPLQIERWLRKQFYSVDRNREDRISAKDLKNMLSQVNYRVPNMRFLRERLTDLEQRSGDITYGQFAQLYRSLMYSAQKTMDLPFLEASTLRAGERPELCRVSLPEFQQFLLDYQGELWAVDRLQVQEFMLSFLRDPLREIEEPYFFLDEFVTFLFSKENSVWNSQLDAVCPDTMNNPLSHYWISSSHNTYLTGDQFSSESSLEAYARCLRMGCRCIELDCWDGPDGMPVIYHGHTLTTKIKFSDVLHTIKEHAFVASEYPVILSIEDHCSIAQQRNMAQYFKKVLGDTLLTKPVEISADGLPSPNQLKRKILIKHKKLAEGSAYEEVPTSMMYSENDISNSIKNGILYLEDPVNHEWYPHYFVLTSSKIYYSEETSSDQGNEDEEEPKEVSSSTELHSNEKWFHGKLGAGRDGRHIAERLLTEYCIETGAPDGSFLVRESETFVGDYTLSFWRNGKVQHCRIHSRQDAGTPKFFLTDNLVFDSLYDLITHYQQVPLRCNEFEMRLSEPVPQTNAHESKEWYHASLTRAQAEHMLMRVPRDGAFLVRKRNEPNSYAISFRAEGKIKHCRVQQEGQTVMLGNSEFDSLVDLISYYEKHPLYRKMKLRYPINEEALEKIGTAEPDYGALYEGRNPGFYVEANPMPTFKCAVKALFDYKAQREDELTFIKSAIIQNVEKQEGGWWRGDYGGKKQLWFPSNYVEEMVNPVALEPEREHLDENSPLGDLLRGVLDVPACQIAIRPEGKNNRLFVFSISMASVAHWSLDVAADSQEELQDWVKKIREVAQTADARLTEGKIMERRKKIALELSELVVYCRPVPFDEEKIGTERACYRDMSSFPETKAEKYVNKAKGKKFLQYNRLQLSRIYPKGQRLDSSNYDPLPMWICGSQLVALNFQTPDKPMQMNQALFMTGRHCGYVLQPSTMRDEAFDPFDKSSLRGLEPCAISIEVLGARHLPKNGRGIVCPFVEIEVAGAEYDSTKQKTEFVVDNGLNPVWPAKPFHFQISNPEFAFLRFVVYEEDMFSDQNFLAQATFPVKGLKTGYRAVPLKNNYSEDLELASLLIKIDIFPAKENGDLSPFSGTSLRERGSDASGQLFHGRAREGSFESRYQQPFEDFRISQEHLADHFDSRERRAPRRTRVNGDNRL
For assay [2], the target named is 1-phosphatidylinositol 4,5-bisphosphate phosphodiesterase beta-3 (Homo sapiens, UniProt Q01970). The assay is described as follows: Fluorescence-based biochemical high throughput dose response assay to identify inhibitors of phospholipase C isozymes (PLC-B3).
Chain of 1-phosphatidylinositol 4,5-bisphosphate phosphodiesterase beta-3 (Q01970 whole entry): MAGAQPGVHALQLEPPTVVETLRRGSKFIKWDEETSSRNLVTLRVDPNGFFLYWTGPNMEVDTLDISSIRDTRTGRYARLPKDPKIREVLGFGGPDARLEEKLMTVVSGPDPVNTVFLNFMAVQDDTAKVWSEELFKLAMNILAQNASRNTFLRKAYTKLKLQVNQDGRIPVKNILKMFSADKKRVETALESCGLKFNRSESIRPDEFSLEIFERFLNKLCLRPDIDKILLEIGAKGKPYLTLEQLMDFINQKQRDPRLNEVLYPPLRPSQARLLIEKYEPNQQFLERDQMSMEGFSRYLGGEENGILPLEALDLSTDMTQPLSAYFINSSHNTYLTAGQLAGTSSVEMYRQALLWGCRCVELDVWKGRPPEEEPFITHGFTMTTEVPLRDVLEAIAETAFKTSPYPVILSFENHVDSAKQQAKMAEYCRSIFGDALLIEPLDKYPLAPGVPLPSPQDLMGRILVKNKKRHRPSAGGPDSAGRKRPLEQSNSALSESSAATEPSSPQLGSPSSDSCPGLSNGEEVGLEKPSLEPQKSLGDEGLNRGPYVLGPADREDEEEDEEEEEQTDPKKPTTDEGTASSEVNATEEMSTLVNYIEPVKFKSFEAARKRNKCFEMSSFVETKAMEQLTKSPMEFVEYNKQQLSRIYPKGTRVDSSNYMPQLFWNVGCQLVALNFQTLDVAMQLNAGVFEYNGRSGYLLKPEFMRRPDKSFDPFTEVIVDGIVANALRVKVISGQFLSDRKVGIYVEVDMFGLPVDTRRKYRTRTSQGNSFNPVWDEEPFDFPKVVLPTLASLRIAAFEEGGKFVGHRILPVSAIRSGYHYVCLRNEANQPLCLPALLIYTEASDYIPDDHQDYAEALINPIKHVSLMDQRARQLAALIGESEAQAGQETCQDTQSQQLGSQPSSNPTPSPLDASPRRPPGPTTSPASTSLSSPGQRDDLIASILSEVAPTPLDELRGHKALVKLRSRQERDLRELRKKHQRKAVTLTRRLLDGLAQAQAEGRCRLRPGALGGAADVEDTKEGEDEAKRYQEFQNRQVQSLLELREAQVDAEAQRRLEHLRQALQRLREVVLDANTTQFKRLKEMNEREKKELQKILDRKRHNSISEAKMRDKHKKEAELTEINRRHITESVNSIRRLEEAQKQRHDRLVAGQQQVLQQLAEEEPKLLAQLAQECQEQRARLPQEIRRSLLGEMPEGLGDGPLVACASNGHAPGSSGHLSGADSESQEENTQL
Assay [3] in a line: HepG2 cell cytotoxicity, dose response, cytotoxicity control, cherry-picked samples (AID 1159577). It counts as functional, cell-based.
Assay [4] can be described thus: P. falciparum Dd2 growth inhibitors, dose response, SYBR Green, cherry-picked samples (AID 1159567). It counts as functional, cell-based.
Assay [5] in a line: P. falciparum 3D7-ScDHODH growth inhibitors, dose response, SYBR Green, dry powder samples (AID 1159570).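 Note: parasite growth measured after 72 hours of compound exposure.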 The assay is classed as functional, cell-based.
The nature of assay [6]: P. falciparum Dd2 growth inhibitors, dose response, SYBR Green, dry powder samples (AID 1159566).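 Note: potency for growth inhibition with lower SYBR green DNA signal.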 It counts as functional, cell-based.
A short description of assay [7]: P. falciparum ATP4 D1247Y mutant growth inhibitors, dose response, NITD609-resistant line, SYBR Green, dry powder (AID 1159571).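 Note: parasites synchronized at ring stage by sorbitol before testing.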 The assay is classed as functional, cell-based.
The target in assay [8] is T1, Rac GTPase-activating protein 1 (Homo sapiens, UniProt Q9H0H5).
T1 sequence (Q9H0H5 whole entry): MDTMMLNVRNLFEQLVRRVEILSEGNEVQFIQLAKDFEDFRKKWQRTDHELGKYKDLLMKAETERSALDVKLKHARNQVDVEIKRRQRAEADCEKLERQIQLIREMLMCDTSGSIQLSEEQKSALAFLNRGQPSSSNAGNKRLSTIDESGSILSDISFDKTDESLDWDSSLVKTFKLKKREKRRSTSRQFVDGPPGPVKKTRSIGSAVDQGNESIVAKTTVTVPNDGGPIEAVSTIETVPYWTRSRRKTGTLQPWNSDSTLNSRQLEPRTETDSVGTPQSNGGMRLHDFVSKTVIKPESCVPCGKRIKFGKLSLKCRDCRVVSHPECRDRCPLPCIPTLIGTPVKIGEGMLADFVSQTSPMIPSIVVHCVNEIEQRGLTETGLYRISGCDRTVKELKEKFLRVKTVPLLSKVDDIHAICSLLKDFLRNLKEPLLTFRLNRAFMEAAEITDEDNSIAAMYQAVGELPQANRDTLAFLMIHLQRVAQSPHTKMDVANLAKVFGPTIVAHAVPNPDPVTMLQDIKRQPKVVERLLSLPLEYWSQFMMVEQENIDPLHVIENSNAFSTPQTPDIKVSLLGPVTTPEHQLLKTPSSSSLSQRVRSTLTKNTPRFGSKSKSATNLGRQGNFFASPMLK
The assay is described as follows: MgcRacGAP GTPase-activating activity inhibitors, confirmation, biochemical, ADP Hunter fluorescence, primary and confirmatory (AID 624330). It counts as functional.

The next assay has as its target Protein Tat (Human immunodeficiency virus type 1 group M subtype B (isolate HXB2)(HIV-1), UniProt P04608). The assay is classed as functional.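 Note: tat binding to TAR RNA read out by fluorescence polarization.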
Assay [9] deals with Bifunctional protein GlmU (Mycobacterium tuberculosis, UniProt P9WMN3). The assay is described as follows: Inhibitors of Mycobacterial Glucosamine-1-phosphate acetyl transferase (GlmU). Secondary screen. Details: species or system Mycobacterium tuberculosis H37Rv.
Chain of Bifunctional protein GlmU (P9WMN3 whole entry): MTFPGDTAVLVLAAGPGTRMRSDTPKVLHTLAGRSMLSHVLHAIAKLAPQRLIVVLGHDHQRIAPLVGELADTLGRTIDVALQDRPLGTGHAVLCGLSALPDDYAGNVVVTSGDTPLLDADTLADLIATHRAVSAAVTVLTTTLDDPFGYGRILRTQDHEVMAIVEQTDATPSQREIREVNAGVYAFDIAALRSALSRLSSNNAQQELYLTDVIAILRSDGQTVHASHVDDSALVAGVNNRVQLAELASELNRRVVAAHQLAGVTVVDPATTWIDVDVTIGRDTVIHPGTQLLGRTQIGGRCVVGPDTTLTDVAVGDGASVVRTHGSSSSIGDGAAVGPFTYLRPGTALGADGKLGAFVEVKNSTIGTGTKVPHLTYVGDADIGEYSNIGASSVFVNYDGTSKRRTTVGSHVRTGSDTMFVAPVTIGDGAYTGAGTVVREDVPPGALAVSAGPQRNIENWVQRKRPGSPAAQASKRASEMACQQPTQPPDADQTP
Assay [10] is described as follows: cytotoxicity toward Colo320 cells – cell-based, CellTiter-Glo luminescence, IC50, dose response (AID 1117334). The assay is classed as functional. To be noted: COLO 320. On the technique in general: Cellular ATP, detected with luciferase, serves as a proxy for viable cell number.
Assay [11] can be described thus: RKO cell viability reduction, dose response, CellTiter-Glo luminescence (AID 1117322). The assay is classed as functional.
A short description of assay [12]: Concentration-dependent survival of SW480 colon cancer line, luminescence detection with CellTiter-Glo, half-maximal inhibitory concentration (AID 1117338). It counts as functional.
Assay [13] can be described thus: cytotoxicity toward HCT116 cells – cell-based, CellTiter-Glo luminescence, IC50, dose response (AID 1117332). To be noted: HCT-116. The assay is classed as functional.
A short description of assay [14]: SNU-C1 cell viability reduction, dose response, CellTiter-Glo luminescence (AID 1117323). The assay is classed as functional, cell-based.
The nature of assay [15]: cytotoxicity toward HT-29 cells – cell-based, CellTiter-Glo luminescence, IC50, dose response (AID 1117330). It counts as functional.
Assay [16] in a line: CellTiter-Glo luminescent dose response of DLD-1 viability loss (AID 1117352). The assay is classed as functional.
The target of the next assay is Trypsin (Sus scrofa, UniProt P00761). The assay is described as follows: porcine trypsin inhibitors, dose response, selectivity assay for Rce1 protease inhibitor project, biochemical, quenched peptide fluorescence, cherry-pick (AID 488789).
Chain of Trypsin (P00761 whole entry): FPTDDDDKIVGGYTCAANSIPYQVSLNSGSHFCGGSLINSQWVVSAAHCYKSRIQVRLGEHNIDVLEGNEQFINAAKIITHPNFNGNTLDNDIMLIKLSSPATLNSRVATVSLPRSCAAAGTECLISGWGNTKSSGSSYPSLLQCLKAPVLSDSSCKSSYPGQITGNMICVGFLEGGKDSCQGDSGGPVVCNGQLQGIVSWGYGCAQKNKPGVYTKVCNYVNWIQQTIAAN
The next assay addresses T2, CAAX prenyl protease 2 (Saccharomyces cerevisiae S288c, UniProt Q03530).
T2 sequence (Q03530 whole entry): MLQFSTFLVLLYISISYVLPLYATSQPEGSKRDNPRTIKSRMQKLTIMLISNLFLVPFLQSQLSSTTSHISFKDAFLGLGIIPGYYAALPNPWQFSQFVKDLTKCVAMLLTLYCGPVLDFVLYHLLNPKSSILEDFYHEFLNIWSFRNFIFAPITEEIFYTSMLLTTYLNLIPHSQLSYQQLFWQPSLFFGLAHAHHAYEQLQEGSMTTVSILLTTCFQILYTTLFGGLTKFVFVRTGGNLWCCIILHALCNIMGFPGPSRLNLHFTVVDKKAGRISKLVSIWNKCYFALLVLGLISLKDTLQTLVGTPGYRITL
It counts as biochemical.

The nature of assay [17]: inhibitors of Vif binding to APOBEC3G peptide, primary screen, biochemical, TR-FRET, GST-Vif 1-94, biotin-A3G peptide, dose response retest (AID 1117319).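 Note: TR-FRET signal of purified GST-Vif binding a biotinylated A3G peptide; inhibitors lower the FRET signal by blocking Vif and A3G binding.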 The assay is classed as functional. In general terms: Time-resolved FRET reads energy transfer from a long-lived donor to a nearby acceptor.
The nature of assay [18]: cytotoxicity in OVCAR8 ovarian cancer cells, dose response, PAX8 project, cell-based, plate reader, dry powder samples (AID 743197). The assay is classed as functional. To be noted: OVCAR-8.
A short description of assay [19]: A2780 ovarian cancer cell cytotoxicity, dose response, cytotoxicity control, plate reader, dry powder samples (AID 743046). The assay is classed as functional, cell-based.
The next assay deals with Paired box protein Pax-8 (Homo sapiens, UniProt Q06710). The assay is described as follows: inhibitors of PAX8-driven TPO luciferase reporter, dose response, RMG-I cells, cherry-pick (AID 687027).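 Note: luciferase reporter driven by Pax8 target thyroperoxidase promoter measured by SteadyGlo luminescence.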 It counts as functional, cell-based.
Chain of Paired box protein Pax-8 (Q06710 whole entry): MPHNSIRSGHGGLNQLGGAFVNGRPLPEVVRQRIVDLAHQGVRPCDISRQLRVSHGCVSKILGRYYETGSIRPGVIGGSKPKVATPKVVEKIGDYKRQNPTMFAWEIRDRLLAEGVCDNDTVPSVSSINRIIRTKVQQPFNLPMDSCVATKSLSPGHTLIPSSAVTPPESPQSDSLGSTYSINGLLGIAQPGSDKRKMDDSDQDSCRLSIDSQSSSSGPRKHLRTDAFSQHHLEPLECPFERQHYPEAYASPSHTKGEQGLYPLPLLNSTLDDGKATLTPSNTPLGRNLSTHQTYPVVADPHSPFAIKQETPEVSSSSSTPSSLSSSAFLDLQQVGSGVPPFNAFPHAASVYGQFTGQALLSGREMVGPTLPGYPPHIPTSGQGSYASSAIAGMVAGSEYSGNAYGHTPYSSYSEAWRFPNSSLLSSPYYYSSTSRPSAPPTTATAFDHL

Calls of active or inactive are those of the source. Where only a bound is given, the exact number is not on record here.

Chain of Protein Tat (P04608 whole entry): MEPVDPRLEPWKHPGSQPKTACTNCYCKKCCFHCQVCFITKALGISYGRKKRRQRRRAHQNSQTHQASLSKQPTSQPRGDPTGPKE
Chain of Genome polyprotein (P29990 2492-3391 limits assumed): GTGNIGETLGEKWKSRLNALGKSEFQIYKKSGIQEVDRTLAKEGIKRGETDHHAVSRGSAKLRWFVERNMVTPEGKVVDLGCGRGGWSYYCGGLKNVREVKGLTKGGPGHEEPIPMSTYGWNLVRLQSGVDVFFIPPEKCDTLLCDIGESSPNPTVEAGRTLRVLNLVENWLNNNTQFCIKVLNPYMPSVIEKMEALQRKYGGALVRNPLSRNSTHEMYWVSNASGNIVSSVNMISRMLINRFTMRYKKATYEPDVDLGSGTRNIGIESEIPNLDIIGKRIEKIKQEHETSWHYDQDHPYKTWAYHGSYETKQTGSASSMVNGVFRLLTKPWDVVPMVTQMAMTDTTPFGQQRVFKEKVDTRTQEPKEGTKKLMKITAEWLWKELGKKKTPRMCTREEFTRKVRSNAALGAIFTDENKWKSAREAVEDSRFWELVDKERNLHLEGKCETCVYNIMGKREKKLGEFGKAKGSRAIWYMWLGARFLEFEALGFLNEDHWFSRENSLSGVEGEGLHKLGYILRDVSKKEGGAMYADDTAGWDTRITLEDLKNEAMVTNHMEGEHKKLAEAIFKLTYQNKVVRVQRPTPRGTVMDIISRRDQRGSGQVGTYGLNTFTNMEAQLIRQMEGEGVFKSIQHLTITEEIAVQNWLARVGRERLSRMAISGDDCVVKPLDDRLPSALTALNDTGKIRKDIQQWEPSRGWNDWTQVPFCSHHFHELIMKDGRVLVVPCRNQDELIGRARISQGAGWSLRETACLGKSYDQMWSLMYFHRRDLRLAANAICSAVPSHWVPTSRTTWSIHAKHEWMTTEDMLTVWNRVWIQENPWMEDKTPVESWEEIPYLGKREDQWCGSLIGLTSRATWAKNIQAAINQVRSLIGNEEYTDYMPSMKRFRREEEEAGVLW

As to `O=C(O)c1[nH]c2ccccc2c1C(c1cc(Br)ccc1O)c1c(C(=O)O)[nH]c2ccccc12`, the IC50 (commonly the point on the concentration scale where inhibition reaches its midpoint) at Genome polyprotein was 16 µM (active). Besides, in “cells”, the AC50 (as a rule, the concentration at which the activity in the assay is half-maximal) was 9.21 µM (active).
Consider `Fc1ccc(-c2cc(-c3cccs3)cc(-c3ccccc3)n2)cc1`, for which the IC50 in assay [1] and in assay [2] was > 123 µM (inactive) each time.
With `COc1ccc(NC(=O)N2CC(=O)N3[C@@H](CO)[C@H](c4ccc(C#CCC5CCCC5)cc4)[C@@H]3C2)cc1`, the AC50 in [3] was > 42 µM (inactive); in [4] it was 3.79 µM (active); in [5], 2.19 µM (active); in assay [6], 2.17 µM (active); in assay [7], 2.84 µM (active).
As for `COc1ccc(N2C(=O)CC(Nc3ccc(N4CCOCC4)cc3)C2=O)c(OC)c1` (stereo not given), the IC50 is 174 µM (active) in [8] and 12.4 µM (inconclusive) on Protein Tat.
For `O=C(O)CSCC(=O)Nc1ccc(-c2nc3ccccc3s2)cc1`, in assay [9], the IC50 was 86.8 µM (active).
For `CCOC(=O)Oc1ccc(CCNC(=O)[C@H](CCSC)NC(C)=O)cc1OC(=O)OCC` [DOCARPAMINE], the IC50 in assay [10], in assay [11], in assay [12], in assay [13], in [14] and in assay [15] was > 20 µM (inactive) throughout. Moreover, in assay [16], the IC50 was > 20 µM (inactive).
As for `OC[C@H]1[C@@H](c2ccc(-c3cccnc3)cc2)[C@@H]2CN(CC3CC3)CCCCN12`, the AC50 in [4] was 2.12 µM (active); in assay [5], 1.9 µM (active); in assay [6] it was 1.8 µM (active); in assay [7], 2.65 µM (active).
With `O=C(O)c1cc(-c2ccc(N3CCOCC3)cc2)nn1-c1ccc(F)cc1F`, the AC50 at Trypsin was 6.65 µM (active); on CAAX prenyl protease 2 it was 13.5 µM (active). Further, the IC50 (at Protein Tat; in [17]) was > 100 µM (active) each time.
Regarding `COc1ccc(C#Cc2ccc([C@@H]3[C@H](CO)N4CCCCN(C(=O)Nc5ccc(F)cc5)C[C@@H]34)cc2)cc1`, the AC50 was 41.2 µM (active) in assay [18], 13.9 µM (active) in assay [19] and 15.5 µM (active) at Paired box protein Pax-8.
